Assays:
JAK2 = JAK2 (Homo sapiens (Human), UniProt O60674); assay: LanthaScreen JAK biochemical assay (JAK2); settings: for Ki: read-out: JAK 2 (pKi) (converted)
[1] = test system: IL-13 induced STAT6 phosphorylation in BEAS-2B human lung epithelial cells; assay: AlphaScreen cellular JAK potency assay, BEAS-2B
[2] = test system: IL-4 induced STAT6 phosphorylation in THP-1 human monocytic cells; assay: Cellular JAK potency assay, THP-1
JAK1 = JAK1 (Homo sapiens (Human), UniProt P23458); assay: LanthaScreen JAK biochemical assay (JAK1); settings: for Ki: read-out: JAK 1 (pKi) (converted)
[3] = IL-13 induced STAT6 phosphorylation, BEAS-2B cells
[4] = IL-4 induced STAT6 phosphorylation, THP-1 cells
[5] = Homo sapiens, BEAS-2B, read-out: BEAS2B pIC50 (converted)
[6] = Homo sapiens, THP-1, read-out: THP-1 IL4 pIC50 (converted)
[7] = BEAS-2B cells, IL-13 induced STAT6 phosphorylation
[8] = THP-1 cells, IL-4 induced STAT6 phosphorylation

Chain of JAK2 (O60674 whole entry): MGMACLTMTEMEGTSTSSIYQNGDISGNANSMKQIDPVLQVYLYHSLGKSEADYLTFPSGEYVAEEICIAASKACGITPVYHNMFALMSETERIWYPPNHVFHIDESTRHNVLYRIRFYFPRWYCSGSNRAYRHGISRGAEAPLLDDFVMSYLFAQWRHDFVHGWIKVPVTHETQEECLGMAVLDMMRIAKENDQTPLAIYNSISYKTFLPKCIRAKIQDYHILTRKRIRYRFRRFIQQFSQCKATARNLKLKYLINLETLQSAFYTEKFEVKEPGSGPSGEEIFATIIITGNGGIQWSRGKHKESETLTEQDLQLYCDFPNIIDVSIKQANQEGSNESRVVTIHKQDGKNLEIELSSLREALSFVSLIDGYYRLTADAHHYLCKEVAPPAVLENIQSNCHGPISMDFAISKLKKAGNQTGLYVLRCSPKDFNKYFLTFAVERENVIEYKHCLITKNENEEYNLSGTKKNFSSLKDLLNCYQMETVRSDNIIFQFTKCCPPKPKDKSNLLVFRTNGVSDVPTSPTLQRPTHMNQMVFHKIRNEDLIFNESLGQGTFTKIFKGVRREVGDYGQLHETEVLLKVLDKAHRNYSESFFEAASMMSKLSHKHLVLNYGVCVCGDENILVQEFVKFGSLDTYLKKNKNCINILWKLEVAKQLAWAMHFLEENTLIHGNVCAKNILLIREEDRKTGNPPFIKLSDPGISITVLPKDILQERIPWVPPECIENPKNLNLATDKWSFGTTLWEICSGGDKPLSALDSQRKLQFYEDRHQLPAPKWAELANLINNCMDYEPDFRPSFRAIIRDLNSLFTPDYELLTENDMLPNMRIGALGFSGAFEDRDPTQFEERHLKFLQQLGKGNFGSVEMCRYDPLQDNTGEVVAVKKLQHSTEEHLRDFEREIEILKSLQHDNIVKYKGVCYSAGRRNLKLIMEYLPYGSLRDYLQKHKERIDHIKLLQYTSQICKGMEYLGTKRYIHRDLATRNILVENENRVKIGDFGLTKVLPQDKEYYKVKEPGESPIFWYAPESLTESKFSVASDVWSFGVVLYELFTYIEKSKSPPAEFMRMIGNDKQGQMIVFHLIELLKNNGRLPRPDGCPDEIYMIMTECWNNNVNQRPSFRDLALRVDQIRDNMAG
Chain of JAK1 (P23458 whole entry): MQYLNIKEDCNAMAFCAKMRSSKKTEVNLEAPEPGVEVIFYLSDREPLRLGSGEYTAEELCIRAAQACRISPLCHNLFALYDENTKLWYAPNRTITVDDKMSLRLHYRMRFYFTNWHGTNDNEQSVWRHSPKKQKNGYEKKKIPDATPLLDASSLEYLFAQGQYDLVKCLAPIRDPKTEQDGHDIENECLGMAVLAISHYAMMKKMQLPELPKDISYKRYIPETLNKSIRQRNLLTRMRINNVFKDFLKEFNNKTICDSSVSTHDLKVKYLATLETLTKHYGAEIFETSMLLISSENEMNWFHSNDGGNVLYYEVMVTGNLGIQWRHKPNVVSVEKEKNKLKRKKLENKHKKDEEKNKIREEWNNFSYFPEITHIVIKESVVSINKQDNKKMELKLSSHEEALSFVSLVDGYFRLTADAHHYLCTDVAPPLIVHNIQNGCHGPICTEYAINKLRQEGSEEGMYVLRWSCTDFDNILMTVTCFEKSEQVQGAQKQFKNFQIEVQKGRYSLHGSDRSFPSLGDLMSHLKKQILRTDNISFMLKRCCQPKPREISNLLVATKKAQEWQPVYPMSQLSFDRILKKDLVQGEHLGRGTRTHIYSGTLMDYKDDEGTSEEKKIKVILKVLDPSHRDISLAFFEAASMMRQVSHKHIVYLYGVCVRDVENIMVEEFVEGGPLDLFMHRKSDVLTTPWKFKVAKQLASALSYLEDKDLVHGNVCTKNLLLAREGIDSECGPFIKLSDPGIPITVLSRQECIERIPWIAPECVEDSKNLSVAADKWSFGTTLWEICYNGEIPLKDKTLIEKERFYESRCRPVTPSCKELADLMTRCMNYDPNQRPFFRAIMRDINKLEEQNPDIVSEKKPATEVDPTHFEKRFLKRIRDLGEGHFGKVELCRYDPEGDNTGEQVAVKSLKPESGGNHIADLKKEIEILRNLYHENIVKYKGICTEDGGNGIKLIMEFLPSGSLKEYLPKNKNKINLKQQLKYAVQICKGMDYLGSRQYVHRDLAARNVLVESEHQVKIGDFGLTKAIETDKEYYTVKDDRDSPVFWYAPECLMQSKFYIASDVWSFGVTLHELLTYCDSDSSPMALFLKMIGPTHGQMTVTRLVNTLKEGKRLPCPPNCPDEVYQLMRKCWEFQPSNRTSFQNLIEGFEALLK

Row | SMILES | JAK 2 (pKi) (JAK2) | BEAS2B pIC50 [1, 3] | THP-1 IL4 pIC50 [2, 4] | JAK 1 (pKi) (JAK1) | Ki (JAK2) [nM] | IC50 [1, 5] [nM] | IC50 [2, 6] [nM] | Ki (JAK1) [nM] | BEAS2B pIC50 [1, 7] | THP-1 IL4 pIC50 [2, 8]
1 | Cc1cc(Nc2cc3ncccc3c(N[C@@H]3C[C@H]4CC[C@@H](C3)N4Cc3ccncc3)n2)n[nH]1 [Example 1-17] | B (B represents a pKi value between 9 and 10 (Ki between 1 nM and 0.1 nM)) | B (B represents a pEC50 value between 6.7 and 7.5 (EC50 between 200 nM and 32 nM)) | B (B represents a pEC50 value between 6.7 and 7.5 (EC50 between 200 nM and 32 nM)) | B (B represents a pKi value between 9 and 10 (Ki between 1 nM and 0.1 nM)) |  |  |  |  |  | 
2 | Cc1cc(Nc2cc3ncccc3c(N[C@@H]3C[C@H]4CC[C@@H](C3)N4C(C)CC#N)n2)n[nH]1 (some centres unmarked) [Example 1-21] | B (B represents a pKi value between 9 and 10 (Ki between 1 nM and 0.1 nM)) | B (B represents a pEC50 value between 6.7 and 7.5 (EC50 between 200 nM and 32 nM)) | A (A represents a pEC50 value≥7.5 (EC50≤32 nM)) | B (B represents a pKi value between 9 and 10 (Ki between 1 nM and 0.1 nM)) |  |  |  |  |  | 
3 | Cc1cc(Nc2cc3ncccc3c(N[C@@H]3C[C@H]4CC[C@@H](C3)N4CC(C)C#N)n2)n[nH]1 (some centres unmarked) [Example 1-23] | A (A represents a pKi value≥10 (Ki≤0.1 nM)) | A (A represents a pEC50 value≥7.5 (EC50≤32 nM)) | A (A represents a pEC50 value≥7.5 (EC50≤32 nM)) | A (A represents a pKi value≥10 (Ki≤0.1 nM)) |  |  |  |  |  | 
4 | Cc1cc(Nc2cc3ncccc3c(N[C@@H]3C[C@H]4CCC[C@@H](C3)N4CCC#N)n2)n[nH]1 [Example 1-31] | A (A represents a pKi value≥10 (Ki≤0.1 nM)) | A (A represents a pEC50 value≥7.5 (EC50≤32 nM)) | A (A represents a pEC50 value≥7.5 (EC50≤32 nM)) | A (A represents a pKi value≥10 (Ki≤0.1 nM)) |  |  |  |  |  | 
5 | Cc1cc(Nc2cc3ncccc3c(N[C@@H]3C[C@H]4CCC[C@@H](C3)N4CCF)n2)n[nH]1 [Example 1-39] | B (B represents a pKi value between 9 and 10 (Ki between 1 nM and 0.1 nM)) | A (A represents a pEC50 value≥7.5 (EC50≤32 nM)) | A (A represents a pEC50 value≥7.5 (EC50≤32 nM)) | B (B represents a pKi value between 9 and 10 (Ki between 1 nM and 0.1 nM)) |  |  |  |  |  | 
6 | Cc1cc(Nc2cc3ncccc3c(N[C@@H]3C[C@H]4CCC[C@@H](C3)N4CCCF)n2)n[nH]1 [Example 1-40] | B (B represents a pKi value between 9 and 10 (Ki between 1 nM and 0.1 nM)) | A (A represents a pEC50 value≥7.5 (EC50≤32 nM)) | A (A represents a pEC50 value≥7.5 (EC50≤32 nM)) | B (B represents a pKi value between 9 and 10 (Ki between 1 nM and 0.1 nM)) |  |  |  |  |  | 
7 | Cc1cc(Nc2cc3ncccc3c(N[C@@H]3C[C@H]4CCC[C@@H](C3)N4CC(C)C)n2)n[nH]1 [Example 1-43] | B (B represents a pKi value between 9 and 10 (Ki between 1 nM and 0.1 nM)) | A (A represents a pEC50 value≥7.5 (EC50≤32 nM)) | A (A represents a pEC50 value≥7.5 (EC50≤32 nM)) | B (B represents a pKi value between 9 and 10 (Ki between 1 nM and 0.1 nM)) |  |  |  |  |  | 
8 | Cc1cc(Nc2cc3ncccc3c(N[C@@H]3C[C@H]4CCC[C@@H](C3)N4CCC(F)(F)F)n2)n[nH]1 [Example 1-44] | B (B represents a pKi value between 9 and 10 (Ki between 1 nM and 0.1 nM)) | A (A represents a pEC50 value≥7.5 (EC50≤32 nM)) | A (A represents a pEC50 value≥7.5 (EC50≤32 nM)) | B (B represents a pKi value between 9 and 10 (Ki between 1 nM and 0.1 nM)) |  |  |  |  |  | 
9 | Cc1cc(Nc2cc3ncccc3c(N[C@@H]3C[C@H]4CCC[C@@H](C3)N4C(=O)c3cncc(C#N)c3)n2)n[nH]1 [Example 2-26] | B (B represents a pKi value between 9 and 10 (Ki between 1 nM and 0.1 nM)) | C (C represents a pEC50 value<6.7 (EC50>200 nM)) |  | B (B represents a pKi value between 9 and 10 (Ki between 1 nM and 0.1 nM)) |  |  |  |  |  | 
10 | Cc1cc(Nc2cc3ncccc3c(N[C@@H]3C[C@H]4CCC[C@@H](C3)N4C(=O)c3ccnc(C#N)c3)n2)n[nH]1 [Example 2-30] | B (B represents a pKi value between 9 and 10 (Ki between 1 nM and 0.1 nM)) | C (C represents a pEC50 value<6.7 (EC50>200 nM)) |  | B (B represents a pKi value between 9 and 10 (Ki between 1 nM and 0.1 nM)) |  |  |  |  |  | 
11 | Cc1cc(Nc2cc3ncccc3c(N[C@@H]3C[C@H]4CCC[C@@H](C3)N4C(=O)CCC(C)C)n2)n[nH]1 [Example 2-31] | B (B represents a pKi value between 9 and 10 (Ki between 1 nM and 0.1 nM)) | B (B represents a pEC50 value between 6.7 and 7.5 (EC50 between 200 nM and 32 nM)) |  | B (B represents a pKi value between 9 and 10 (Ki between 1 nM and 0.1 nM)) |  |  |  |  |  | 
12 | CCC(C)OC(=O)N1[C@@H]2CCC[C@H]1C[C@H](Nc1nc(Nc3cc(C)[nH]n3)cc3ncccc13)C2 (some centres unmarked) [Example 3-12] | B (B represents a pKi value between 9 and 10 (Ki between 1 nM and 0.1 nM)) | B (B represents a pEC50 value between 6.7 and 7.5 (EC50 between 200 nM and 32 nM)) |  | B (B represents a pKi value between 9 and 10 (Ki between 1 nM and 0.1 nM)) |  |  |  |  |  | 
13 | Cc1cc(Nc2cc3ncccc3c(N[C@@H]3C[C@H]4CC[C@@H](C3)N4S(=O)(=O)C(C)C)n2)n[nH]1 [Example 4-2] |  |  |  |  | 0.1 to 1 | < 31.6 | < 31.6 | 0.1 to 1 |  | 
14 | CCN1CC(S(=O)(=O)N2[C@@H]3CC[C@H]2C[C@H](Nc2nc(Nc4cc(C)[nH]n4)cc4ncccc24)C3)C1 [Example 4-10] |  |  |  |  | 0.1 to 1 | 31.6 to 200 | 31.6 to 200 | 0.1 to 1 |  | 
15 | Cc1cc(Nc2cc3ncccc3c(N[C@@H]3C[C@H]4CC[C@@H](C3)N4S(=O)(=O)c3cncc(F)c3)n2)n[nH]1 [Example 4-15] |  |  |  |  | 0.1 to 1 | < 31.6 | < 31.6 | 0.1 to 1 |  | 
16 | Cc1cc(Nc2cc3ncccc3c(N[C@@H]3C[C@H]4CCC[C@@H](C3)N4S(=O)(=O)Cc3cccnc3)n2)n[nH]1 [Example 4-26] | B (B represents a pKi value between 9 and 10 (Ki between 1 nM and 0.1 nM)) | B (B represents a pEC50 value between 6.7 and 7.5 (EC50 between 200 nM and 32 nM)) | B (B represents a pEC50 value between 6.7 and 7.5 (EC50 between 200 nM and 32 nM)) | B (B represents a pKi value between 9 and 10 (Ki between 1 nM and 0.1 nM)) |  |  |  |  |  | 
17 | COc1ccc2c(N[C@@H]3C[C@H]4CC[C@@H](C3)N4C(=O)C3(C(F)(F)F)CC3)nc(Nc3cc(C)[nH]n3)cc2n1 [Example 5-6] |  |  |  |  | 0.1 to 1 | < 31.6 | < 31.6 | 0.1 to 1 |  | 
18 | COc1ccc2c(N[C@@H]3C[C@H]4CCC[C@@H](C3)N4CCC#N)nc(Nc3cc(C)[nH]n3)cc2n1 [Example 5-10] | A (A represents a pKi value≥10 (Ki≤0.1 nM)) | A (A represents a pEC50 value≥7.5 (EC50≤32 nM)) | A (A represents a pEC50 value≥7.5 (EC50≤32 nM)) | A (A represents a pKi value≥10 (Ki≤0.1 nM)) |  |  |  |  |  | 
19 | Cc1cc(Nc2cc3nc(CN4CCOCC4)ccc3c(N[C@@H]3C[C@H]4CCC[C@@H](C3)N4S(=O)(=O)c3cncc(F)c3)n2)n[nH]1 [Example 5-30] | A (A represents a pKi value≥10 (Ki≤0.1 nM)) | A (A represents a pEC50 value≥7.5 (EC50≤32 nM)) | A (A represents a pEC50 value≥7.5 (EC50≤32 nM)) |  |  |  |  |  |  | 
20 | Cc1cnc2cc(Nc3cc(C)[nH]n3)nc(N[C@@H]3C[C@H]4CCC[C@@H](C3)N4S(=O)(=O)N3CC(C#N)C3)c2c1 [Example 6-9] | A (A represents a pKi value≥10 (Ki≤0.1 nM)) |  |  |  |  |  |  |  | A (A represents a pEC50 value≥7.5 (EC50≤32 nM)) | A (A represents a pEC50 value≥7.5 (EC50≤32 nM))
21 | COC(=O)c1cnc2cc(Nc3cc(C)[nH]n3)nc(N[C@@H]3C[C@H]4CC[C@@H](C3)N4CC(=O)OC(C)C)c2c1 [Example 6-41] | B (B represents a pKi value between 9 and 10 (Ki between 1 nM and 0.1 nM)) |  |  |  |  |  |  |  | B (B represents a pEC50 value between 6.7 and 7.5 (EC50 between 200 nM and 32 nM)) | A (A represents a pEC50 value≥7.5 (EC50≤32 nM))
22 | Cc1cc(Nc2cc3ncc(S(C)(=O)=O)cc3c(N[C@@H]3C[C@H]4CCC[C@@H](C3)N4Cc3ccncc3)n2)n[nH]1 [Example 6-60] | A (A represents a pKi value≥10 (Ki≤0.1 nM)) |  |  | A (A represents a pKi value≥10 (Ki≤0.1 nM)) |  |  |  |  | B (B represents a pEC50 value between 6.7 and 7.5 (EC50 between 200 nM and 32 nM)) | 

From patent US10072026B2, “Crystalline form of 3-((1R,3s,5S)-3-((7-((5-methyl-1H-pyrazol-3-yl)amino)-1,6-naphthyridin-5-yl)amino)-8-azabicyclo[3.2.1]octan-8-yl)propanenitrile” (priority 2015, dated 2018)
